Legend:
MMP-1 = molecular target: T1, MMP-1 (Homo sapiens, UniProt P03956); assay: fluorimetric assay of MMP activity; type: biochemical; settings: synthetic fluorescent peptide substrate Mca-Lys-Pro-Leu-Gly-Leu-Dpa-Ala-Arg-NH2
T1 sequence (P03956 100-469): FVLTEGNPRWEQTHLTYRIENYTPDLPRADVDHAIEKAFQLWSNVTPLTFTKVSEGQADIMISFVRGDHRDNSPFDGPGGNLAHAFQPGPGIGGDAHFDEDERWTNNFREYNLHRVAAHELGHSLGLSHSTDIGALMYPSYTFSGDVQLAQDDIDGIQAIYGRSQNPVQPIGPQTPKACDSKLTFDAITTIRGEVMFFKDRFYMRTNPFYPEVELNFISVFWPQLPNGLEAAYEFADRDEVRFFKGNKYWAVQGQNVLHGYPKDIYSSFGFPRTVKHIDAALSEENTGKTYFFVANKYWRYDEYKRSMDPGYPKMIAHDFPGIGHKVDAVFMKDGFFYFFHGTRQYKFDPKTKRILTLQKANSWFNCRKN

MMP-8 = MMP-8 (Homo sapiens, UniProt P22894); assay: fluorimetric assay of MMP activity; type: biochemical; settings: synthetic fluorescent peptide substrate Mca-Lys-Pro-Leu-Gly-Leu-Dpa-Ala-Arg-NH2
MMP-8, sequence (P22894 101-467): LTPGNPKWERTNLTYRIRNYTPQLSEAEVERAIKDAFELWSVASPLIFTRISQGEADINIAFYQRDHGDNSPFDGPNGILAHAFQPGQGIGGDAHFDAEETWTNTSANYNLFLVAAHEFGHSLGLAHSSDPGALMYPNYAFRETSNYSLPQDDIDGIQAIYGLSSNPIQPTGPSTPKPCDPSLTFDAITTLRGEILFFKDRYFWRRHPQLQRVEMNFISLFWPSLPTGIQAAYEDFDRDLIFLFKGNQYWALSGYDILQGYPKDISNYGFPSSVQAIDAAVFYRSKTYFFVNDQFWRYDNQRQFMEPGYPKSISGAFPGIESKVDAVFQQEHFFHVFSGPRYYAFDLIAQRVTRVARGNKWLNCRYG

MMP-13 = MMP-13 (Homo sapiens, UniProt P45452); assay: fluorimetric assay of MMP activity; type: biochemical; settings: synthetic fluorescent peptide substrate Mca-Lys-Pro-Leu-Gly-Leu-Dpa-Ala-Arg-NH2
MMP-3 = MMP-3 (Homo sapiens, UniProt P08254); assay: fluorimetric assay of MMP activity; type: biochemical; settings: synthetic fluorescent peptide substrate Mca-Lys-Pro-Leu-Gly-Leu-Dpa-Ala-Arg-NH2
MMP-3, sequence (P08254 100-477): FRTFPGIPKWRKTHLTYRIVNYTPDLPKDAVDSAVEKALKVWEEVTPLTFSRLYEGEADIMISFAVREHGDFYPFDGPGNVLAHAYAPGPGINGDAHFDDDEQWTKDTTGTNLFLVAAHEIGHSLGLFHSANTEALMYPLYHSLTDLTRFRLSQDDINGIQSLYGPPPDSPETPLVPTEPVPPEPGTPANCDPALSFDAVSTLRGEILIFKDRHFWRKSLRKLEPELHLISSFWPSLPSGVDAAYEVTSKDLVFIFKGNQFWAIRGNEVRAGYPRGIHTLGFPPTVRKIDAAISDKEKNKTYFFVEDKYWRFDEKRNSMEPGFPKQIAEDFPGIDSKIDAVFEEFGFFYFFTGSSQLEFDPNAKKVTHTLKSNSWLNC

MMP-12 = MMP-12 (Homo sapiens, UniProt P39900); assay: fluorimetric assay of MMP activity; type: biochemical; settings: synthetic fluorescent peptide substrate Mca-Lys-Pro-Leu-Gly-Leu-Dpa-Ala-Arg-NH2
MMP-12, sequence (P39900 106-470): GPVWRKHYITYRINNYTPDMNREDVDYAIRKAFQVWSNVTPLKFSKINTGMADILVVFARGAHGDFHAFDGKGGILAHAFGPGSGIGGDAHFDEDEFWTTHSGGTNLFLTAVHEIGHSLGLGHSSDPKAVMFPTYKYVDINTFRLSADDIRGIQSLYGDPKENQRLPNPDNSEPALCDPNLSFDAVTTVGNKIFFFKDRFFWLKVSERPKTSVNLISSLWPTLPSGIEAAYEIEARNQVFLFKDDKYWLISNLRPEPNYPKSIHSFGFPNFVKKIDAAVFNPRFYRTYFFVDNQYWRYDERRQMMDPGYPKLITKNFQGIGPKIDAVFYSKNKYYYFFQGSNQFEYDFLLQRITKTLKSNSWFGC

[1] = tested on: MMPs 1, 2, 3, 7, 8, 9, 12, 13 and 14; assay: activity against a battery of MMPs (summary in words); type: biochemical, human
skin wounds = assay: histological and histomorphometric assessment of skin wounds; type: in vivo, rat; settings: diabetic rats, topical 1% and systemic compared with topical 3%, 7 days
Protocol: The following five experimental groups (n=3 rats per group) were established: Non-diabetic control rats (NDC) treated by daily application of white petrolatum jelly (“vehicle”) for 7 days, diabetic rats (D group) treated daily with vehicle alone; diabetics treated by daily topical application of either a 1% (D+1%) or a 3% (D+3%) suspension of Compound 4 in the vehicle; and diabetics treated systemically by daily oral intubation of a 1 ml suspension of Compound 4 (in carboxymethylcellulose) at a dose of 30 mg/kg over the 7-day treatment protocol (D+30 mg/kg). At the end of this time period, the circular wounds were clinically assessed by measuring diameter of the wound in millimeters, blood samples were collected, the rats were sacrificed, and skin samples collected for histological/histochemical, and biochemical assessment as described below. • 1) On day 7 after inducing wound healing, the animals were anesthetized and blood samples collected for blood glucose (one Touch Ultra Glucometer; Johnson & Johnson, New Brunswick, N.J.) and Hemoglobin A1c (A1c Now+; Bayer Health Care, Sunnyvale, Calif.) measurements. • 2) Photographs were taken for clinical observations to assess wound closure. […]

IL-1β = assay: cytokine production by peritoneal macrophages of orally treated diabetic rats in culture; type: in vivo, rat; settings: oral 30 mg/kg daily, 21 days, culture with or without P. gingivalis LPS
Protocol: (§1) Adult male Sprague-Dawley rats (body weight 300-350 g) were injected through the tail vein with either 0.9% saline (non-diabetic control) or with the same solution containing streptozotocin (70 mg/kg body weight) to induce diabetes. Non-diabetic rats served as normal controls. The diabetic rats were distributed into 2 experimental groups (3 rats per group). Urine glucose levels were measured weekly with Tes-Tape (Eli Lilly Inc.). One group of rats was treated by oral gavage of Compound 4 (30 mg/kg body weight) daily for 21 days; the Compound 4 was suspended in 2% carboxymethyl cellulose and polytron/homogenized. The normal & diabetic vehicle-treated (control) groups were oral gavaged with vehicle alone daily.
(§2) Rat peritoneal macrophages were harvested with 10 ml RPMI 4 days after intraperitoneal injection of 10 ml of thioglycolate (3% wt/vol). Macrophages were then purified by density gradient centrifugation (lymphoprep) and cell numbers were counted in a hemocytometer. The cells were then tested in a cell migration assay (Cell BioLabs, Inc, CytoSelect 96-well with 5 um fluorometric format) using conditioned medium containing inflammatory mediators including MCP-1 from LPS-macrophages as a chemoattractant. The macrophages from different groups of rats were also plated onto 24 well-plates with and without p.g.LPS challenge for 24 hours in 37° C., 5% CO2. […]

IL-6 = assay: as above; type: in vivo, rat; settings: oral 30 mg/kg daily, 21 days, culture with or without P. gingivalis LPS
Protocol: as §1, §2

peritoneal macrophages = assay: cell migration (chemotaxis) assay of peritoneal macrophages; type: in vivo, rat; settings: diabetic rats, oral 30 mg/kg daily, 21 days
Protocol: as §1, §2

[2] = blood glucose of the rats of the collagen experiment; type: in vivo, rat; settings: diabetic rats

Structure (SMILES): O=C(/C=C/c1ccc(O)cc1)C(C(=O)/C=C/c1ccc(O)cc1)C(=O)Nc1ccccc1 [Compound 4, 1,7-Bis(4-hydroxyphenyl)-4-N-phenylaminocarbonylhepta-1E, 6E-dien-3,5-dione]
- IC50 (MMP-1): 69800 ± 2000 nM
- IC50 (MMP-8): 4500 ± 500 nM
- IC50 (MMP-13): 2700 ± 700 nM
- IC50 (MMP-3): 2900 ± 400 nM
- IC50 (MMP-12): 2000 ± 400 nM
- anti-MMP activity (in words) [1]: highly active
- histological healing of epithelium and connective tissue (skin wounds): more effective than treatment with topical 3% Compound 4
- IL-1β production by peritoneal macrophages (IL-1β): decreased excessive inflammatory cytokine
- IL-6 production by peritoneal macrophages (IL-6): decreased excessive inflammatory cytokine
- macrophage chemotactic activity (peritoneal macrophages): counteracted the suppression of macrophage chemotactic activity
- Blood Glucose ([2]; 0.25% topical): 538 mg/dL
- Blood Glucose ([2]; 1% topical): 545 mg/dL

Reference: patent US20160355465A1, “NOVEL MODIFIED CURCUMINS AND THEIR USES” (THE RESEARCH FOUNDATION OF STATE UNIVERSITY OF NEW YORK, priority 2011, published 2016)
